Data from patent publication US5177204A, “Derivatives of 4-(2,4-difluorbiphenylyl)-2-methyl-4-oxobutanoic acid” (Vyzkumng, USTAV pro farmacii a biochemii, Statni podnik, priority 1990, dated 1993).
Structures can show the parent of a compound that is named as a salt.

How the values were obtained:
[1] = Freund adjuvant test, inhibition of adjuvant oedema (FA), anti-inflammatory effect; assay type: in vivo; settings: for FA suppression %: Table II, oral; for FA inhibition %: Table I, oral suspension in 0.5% methylcellulose, dose equimolar to flobufen 20 mg/kg
Protocol: (§1) ^b Antiinflammatory and analgesic activity was evaluated in compariso
(§2) with flobufen in equimolar doses, while flobufen was administered in a
(§3) dose of 20 mg/kg in the evaluation of antiinflammatory activity and in a
(§4) dose of 100 mg/kg in the evaluation of analgesic activity; the substances
(§5) were administered orally as a suspension in a 0.5% solution of
(§6) methylcellulose and the oedema was measured 1 hour upon application;
^d Antiinflammatory effect in the Freundadjuvant test was assessed
according to Horakova Z., Grimova J.: Cs. Fysiol. 17, 137 (1968);
(§7) ^b for oral and intramuscular application an aqueous solution of
(§8) substance 17640 was used in said dose;
(§9) ^c the standard, i.e. 4(2,4-difluorobiphenylyl)-2-methyl-4-oxobutanic
(§10) acid was administered as a suspension in a 0.5% methylcellulose solution.

[2] = Suppression of carragenine oedema (CE), anti-inflammatory effect; assay type: in vivo; settings: for CE suppression %: Table II; for CE inhibition %: Table I, oral suspension in 0.5% methylcellulose, dose equimolar to flobufen 20 mg/kg, 1 hour upon application
Protocol: as §1, §2, §3, §4, §5, §6
^c Suppression of the carraganine oedema was assessed according to
Winter J.: Proc. Soc. exptl. Biol. Med., 111, 544 (1962);
as §7, §8, §9, §10

[3] = Acute toxicity, mortality after a single dose (oral or intravenous); assay type: in vivo; settings: mouse, male mice; for mortality at 168 h: in vivo, po, 500 mg/kg, Table I, single oral dose of 500 mg/kg, day 7 after application
Protocol: (§11) ^a Acute oral toxicity of each substance was evaluated after a single
(§12) dose of 500 mg/kg in male mice. The mortality in % is for day 7 after
(§13) ^a Acute toxicity was evaluated after a single dose of substance 1764
(§14) in male mice, namely orally as an aqueous solution, and intravenously in
(§15) physiological saline solution. Mortality was followed up in groups of 10
(§16) animals for 7 days upon oral application and for 3 days upon intravenous

[4] = Analgesic activity, intraperitoneal irritation with 0.7% acid; assay type: in vivo, male mice; settings: for Pain suppression %: Table II; for Pain inhibition %: Table I, oral suspension in 0.5% methylcellulose, dose equimolar to flobufen 100 mg/kg, male mice
Protocol: as §1, §2, §3, §4, §5
^e Analgesic activity was evaluated in the test of intraperitoneal
irritation with 0.7% acid in male mice according to Witkin L. et al.: J.
as §7, §8, §9, §10

male mice = assay: Acute toxicity, mortality after a single dose (oral or intravenous); assay type: in vivo; settings: 500 mg/kg, 10080 min; for % mortality: Table I, single oral dose of 500 mg/kg, day 7 after application
Protocol: as §11, §12, §13, §14, §15, §16

Row | SMILES | FA inhibition % [1] | CE inhibition % [2] | mortality at 168 h [3] | Pain inhibition % [4] | % mortality (male mice) | further results
1 | CC(CC(=O)c1ccc(-c2ccc(F)cc2F)cc1)C(=O)O (stereo not drawn) [VUFB 17640] | – | – | – | – | – | FA suppression % ([1]; dose 30, aqueous solution): 58%; CE suppression % ([2]; oral, dose 30, aqueous solution): 46%; CE suppression % ([2]; parenteral (intramuscular), dose 1, aqueous solution): 21%; CE suppression % ([2]; parenteral (intramuscular), dose 10, aqueous solution): 40%; mortality at 72 h ([3]; physiological saline, iv, 100 mg/kg, Table II, parenteral (intravenous), dose 100, physiological saline, 3 days): 0%; Pain suppression % ([4]; oral, dose 150, aqueous solution): 77%; Pain suppression % ([4]; parenteral (intramuscular), dose 80, aqueous solution): 48%
2 | CCOC(=O)CNC(=O)C(C)CC(=O)c1ccc(-c2ccc(F)cc2F)cc1 (stereo not drawn) [VUFB 18392] | 51% | 40% | 0% | 41% | – | –
3 | CCOC(=O)C(C)CC(=O)c1ccc(-c2ccc(F)cc2F)cc1 (stereo not drawn) [VUFB 18391] | 55% | 49% | 0% | 38% | – | –
4 | CC(CC(=O)c1ccc(-c2ccc(F)cc2F)cc1)C(=O)O (stereo not drawn) [Flobufen, 4(2,4-difluorobiphenylyl)-2-methyl-4-oxobutanic acid, reference compound] | 65% | 46% | – | 79% | 50% | FA suppression % ([1]; dose 20, suspension in 0.5% methylcellulose): 65%; CE suppression % ([2]; oral, dose 20, suspension in 0.5% methylcellulose): 46%; Acute toxicity, % mortality (male mice; Table II, oral, dose 500, aqueous solution (flobufen: suspension in 0.5% methylcellulose), 7 days): 50%; Pain suppression % ([4]; oral, dose 100, suspension in 0.5% methylcellulose): 79%
5 | CC(CC(=O)c1ccc(-c2ccc(F)cc2F)cc1)C(=O)O (stereo not drawn) [VUFB 18405, Potassium Salt of 4-/2,4-Difluorobiphenylyl/-2-methyl-4-oxobutan Acid] | 50% | 39% | – | 47% | 20% | –
6 | CC(CC(=O)c1ccc(-c2ccc(F)cc2F)cc1)C(=O)O (stereo not drawn) [VUFB 17629, Cyclohexylammonium Salt of 4-/2,4-Difluorobiphenylyl/-2-methyl-4-oxobutan Acid] | 53% | 47% | – | 58% | 0% | –
7 | CCCCNC(=O)C(C)CC(=O)c1ccc(-c2ccc(F)cc2F)cc1 (stereo not drawn) [VUFB 18398, n-Butylamide of 4-/2,4-Difluorobiphenylyl/-2-methyl-4-oxobutan Acid] | 44% | 33% | 0% | 33% | – | –
8 | CC(CC(=O)c1ccc(-c2ccc(F)cc2F)cc1)C(=O)O (stereo not drawn) [VUFB 18404] | 51% | 44% | – | 35% | 30% | –
